# Assay results from publication PMC9356275, “A quantitative high-throughput screen identifies compounds that lower expression of the SCA2-and ALS-associated gene ATXN2” (The Journal of Biological Chemistry, 2022).
# Where a name gives a salt, the structure may show the parent alone. Read-outs that look alike come from different tables or passages of the source.
# Key:
# Assay type in all cases: cell-based, human
# ATXN2-luc [1] = test: MSSR pilot screen: ATXN2-luc luciferase assay (Bright-Glo) in H2 cells, single 10 μM dose; conditions: for SD from mean (ATXN2-luc, Z-score): H2 cells, single dose (title: 10 μM compound), overnight; for ¦Score/1SD¦: absolute score divided by 1SD (0.891 or 0.9)
# ATXN2-luc [2] = test: MSSR hit retest / multiconcentration testing: ATXN2-luc luciferase assay in H2 cells (1 and 10 μM); conditions: for H2&S1 ave luc 1uM: 1 uM compound; for H2&S1 ave luc 10uM: 10 uM compound
# ATXN2-luc [3] = test: MSSR hit retest: ATXN2-luc luciferase assay, average of H2 and S1 cells (1 and 10 uM); set-up: H2&S1 ave luc 1uM / H2&S1 ave luc 10uM: scale not given here; conditions: for activity at 1 µM / activity at 10 µM / activity: Homo sapiens; for activity at 1 µM: read-out: H2&S1 ave luc 1uM; for activity at 10 µM / H2&S1 ave luc 10uM: head line r3 10uM; for activity at 10 µM / activity: read-out: H2&S1 ave luc 10uM; for H2&S1 ave luc 10uM: head line r4 20 uM compound
# Excerpt: (§1) Supplement mmc2.xlsx, sheet "43 annotated compounds"
# H2 and S1 cells = test: Paired MTT viability assay, average of H2 and S1 cells (1 and 10 uM); set-up: H2&S1 ave MTT 1uM / H2&S1 ave MTT 10uM: unit not given here; conditions: for viability at 1 µM / viability at 10 µM: Homo sapiens
# Excerpt: as §1
# ATXN2-luc [4] = test: NCATS qHTS (LOPAC pilot, primary and confirmation): ATXN2-luc in S2 cells, 1536-well, Steady-Glo; conditions: LOPAC library screening optimization; for AC50: Homo sapiens
# Method: We next performed a pilot screen assay to optimize the 1536-well qHTS using S2 cells. […] Cytotoxicity was determined using a multiplexed viability assay (CellTiter-Fluor, a fluorescence-based viability assay using Gly-Phe-7-amino-4-trifluoromethylcoumarin substrate).
# CellTiter-Fluor was used to determine compound effect on cell viability, and Steady-Glo was used to measure luciferase in a multiplexed assay.
# The primary assay was conducted at the NCATS NIH Chemical Genomics Center laboratory. About 4 μl of S2 cell suspension in phenol red–free DMEM was dispensed into wells of 1536-well assay plates. […] Next, SteadyGlo luciferase substrate detection reagent (3 μl) was added to each well and incubated for an additional 5 min at room temperature. Luminescence was then measured on the ViewLux imager equipped with clear filters using a 2 s exposure. All screening operations were performed on a fully integrated robotic system (Kalypsys) containing one RX-130 and two RX-90 anthropomorphic robotic arms (Stäubli). Vehicle-only plates, with DMSO being pin-transferred to columns 5 to 48, were inserted uniformly at the beginning and the end of each library in order to monitor and record any shifts in assay performance.
# ATXN2-luc [5] = test: Secondary assays: ATXN2-luc in S2 and H2 cells, 12 doses, Bright-Glo; conditions: summary data
# Method: The values for H2 and S2 were used as replicates to calculate IC50s and to assess cell viability.
# (§2) Compounds were plated at 2× concentrations in phenol red–free DMEM in 25 μl in 384-well plates with each compound dose plated in triplicate. An equal volume of S2, H2, or SC cells (24,000 cells/well) suspended in phenol red–free DMEM with 10% fetal bovine serum and 1× penicillin/streptomycin were added. Cells were grown 24 h and then assayed first by using the CellTiter-Fluor reagent (20 μl) followed by the addition of Bright-Glo (65 μl) luciferase assay, using a multimode plate reader (Beckman; DT880). Values were reported as the mean ± SD with n = 3. IC50s were determined by the Hill coefficient method using an online tool (https://www.aatbio.com/tools/ic50-calculator).
# CMV-luc = test: Secondary assays: CMV-luc in SC cells, Bright-Glo; conditions: minimum CMV-luc signal in SC cells over 12 doses; summary data
# Method: as §2
# [6] = pilot screen at 10 µM compound, H2 cells expressing ATXN2-luc
# [7] = luciferase, average of H2 and S1 cells expressing ATXN2-luc, rescreen
# [8] = 1 uM compound, average of H2 and S1 cells
# [9] = 1 uM compound, read-out: H2&S1 ave MTT 1uM
# [10] = 10 uM compound, read-out: H2&S1 ave MTT 10uM
# [11] = pilot screen, H2 cells expressing ATXN2-luc, single dose printed as 10 μM compound
# [12] = luciferase assay, average of H2 and S1 cells (both ATXN2-luc), rescreen from plated libraries
# [13] = read-out: H2&S1 ave MTT 1uM, 1 uM compound
# [14] = read-out: H2&S1 ave MTT 10uM, 10 uM compound
SMILES,"SD from mean (ATXN2-luc, Z-score) (ATXN2-luc [1]) [SD]",SD from mean (pilot screen) (ATXN2-luc [1]; pilot screen) [SD],SD from mean (pilot screen) (ATXN2-luc [1]; [6]),¦Score/1SD¦ (ATXN2-luc [1]; pilot screen),H2&S1 ave luc 1uM (ATXN2-luc [2]; [7]),SD from mean (pilot screen) (ATXN2-luc [1]; [11]),H2&S1 ave luc 1uM (ATXN2-luc [2]; [12]),activity at 1 µM (ATXN2-luc [3]) [%],activity (ATXN2-luc [3]) [%],viability at 1 µM (H2 and S1 cells; [13]) [%],viability at 10 µM (H2 and S1 cells; [14]) [%],H2&S1 ave luc 10uM (ATXN2-luc [2]; [7]),H2&S1 ave luc 1uM (ATXN2-luc [3]; [8]),H2&S1 ave luc 10uM (ATXN2-luc [3]; average of H2 and S1 cells),H2&S1 ave MTT 1uM (H2 and S1 cells; 1 uM compound),H2&S1 ave MTT 10uM (H2 and S1 cells; 10 uM compound),further results
CC(N/C(=N\C#N)Nc1ccncc1)C(C)(C)C (stereo not shown),-4.875,-4.875,-4.875,5.47,117,,,,,,,,,,,,activity at 1 µM (ATXN2-luc [3]; [8]): 117%; activity at 10 µM (ATXN2-luc [3]; average of H2 and S1 cells): 17%; viability at 1 µM (H2 and S1 cells; [9]): 107%; viability at 10 µM (H2 and S1 cells; [10]): 51.5%
CCCCCCCCCOc1ccc2[nH]cc(CCN)c2c1 [5-Nonyloxytryptamine],-3.607,-3.607,,4.01,,-3.607,111,111,4.61,114,23.7,,,,,,
C/C1=C2/[N-][C@H]([C@H](CC(N)=O)[C@@]2(C)CCC(=O)NC[C@@H](C)OP(=O)([O-])O[C@H]2[C@@H](O)[C@@H](n3cnc4cc(C)c(C)cc43)O[C@@H]2CO)[C@]2(C)N=C(/C(C)=C3N=C(/C=C4N=C1[C@@H](CCC(N)=O)C\4(C)C)[C@@H](CCC(N)=O)[C@]\3(C)CC(N)=O)[C@@H](CCC(N)=O)[C@]2(C)CC(N)=O.[Co] [COBALAMINE],-5.111,-5.111,-5.111,5.68,126,,,,,,,109,126,109,115.867,108.02,
CC[C@H]1CN2CCc3cc(OC)c(OC)cc3[C@@H]2C[C@@H]1C[C@H]1NCCc2cc(O)c(OC)cc21.Cl.Cl.O.O.O.O.O.O.O [Cephaeline dihydrochloride heptahydrate],-4.055,-4.055,-4.055,4.55,16,,,,,,,17,16,17,59.1374,62.1025,
CO[C@H]1[C@@H](O)[C@@H](C)O[C@@H](O[C@H]2CC[C@]3(C)[C@H]4CC[C@]5(C)[C@@H](C6=CC(=O)OC6)CC[C@]5(O)[C@@H]4CC[C@]3(O)C2)[C@@H]1O [EMICYMARIN],-3.080,-3.080,,3.42,,-3.080,115,,,,,,115,31,111.923,53.425,H2&S1 ave luc 10uM (ATXN2-luc [2]; [12]): 31
C[C@H]1O[C@@H](O[C@H]2CC[C@]3(C=O)[C@H]4CC[C@]5(C)[C@@H](C6=CC(=O)OC6)CC[C@]5(O)[C@@H]4CC[C@]3(O)C2)C[C@H](O)[C@@H]1O [Helveticoside],-2.733,-2.733,,3.07,,-2.733,,118,41,99,37.1,,,,,,"AC50 (ATXN2-luc [4]; logarithm of AC50 (negative values), read-out: Log AC50 (converted)): 3.55 µM; AC50 (ATXN2-luc [4]; read-out: AC50): 3.55 µM; Efficacy (ATXN2-luc [4]; curve-fit parameter): -86.9163; Inf Activity (ATXN2-luc [4]; curve-fit parameter): -84.4727"
CNC1CC(c2ccc(Cl)c(Cl)c2)c2ccccc21 (stereo not shown) [Indatraline],,-3.071,,3.41,,-3.071,107,107,5.53,117,13.5,,,,,,
CS(=O)(=O)Nc1ccc(Cc2noc(-c3ccc4[nH]cc(CCN)c4c3)n2)cc1 [L-694 247],-3.156,-3.156,,3.51,,-3.156,110,,,,,,110,6,107.272,16.3621,H2&S1 ave luc 10uM (ATXN2-luc [2]; [12]): 6
CC(=O)O[C@H]1C[C@H](O[C@H]2[C@@H](O)C[C@H](O[C@H]3[C@@H](O)C[C@H](O[C@H]4CC[C@@]5(C)[C@H](CC[C@@H]6[C@@H]5C[C@@H](O)[C@]5(C)[C@@H](C7=CC(=O)OC7)CC[C@]65O)C4)O[C@@H]3C)O[C@@H]2C)O[C@H](C)[C@H]1O[C@@H]1O[C@H](CO)[C@@H](O)[C@H](O)[C@H]1O [LANATOSIDE C],,,,,39,,,39,15,35,35.6,15,,,,,
CC1=CC(=O)c2ccccc2C1=O [Menadione],-3.434,-3.434,,3.85,,-3.434,115,,,,,,,,,,activity at 1 µM (ATXN2-luc [3]; [8]): 115%; activity at 10 µM (ATXN2-luc [3]; average of H2 and S1 cells): 35%; viability at 1 µM (H2 and S1 cells; [9]): 153%; viability at 10 µM (H2 and S1 cells; [10]): 103%
"Nc1ccc(-c2ccc3ncc4ccc(=O)n(-c5cccc(C(F)(F)F)c5)c4c3c2)cn1 [NCGC00263216-02, torin 2]",,,,,,,,,,,,,,,,,"IC50 (ATXN2-luc [5]; ATXN2-luc luciferase assays in H2 and S2 cells, 12 doses plus a zero dose, read-out: Mean IC50): 0.257 µM; min ATXN2-luc (%) (ATXN2-luc [5]; minimum ATXN2-luc signal over 12 doses, H2 and S2 cells): 25.4183%; min SC luc (%) (CMV-luc): 128.375%"
COc1ccc(CCCOC(Cn2ccnc2)c2ccc(OC)cc2)cc1 (stereo not shown) [SKF-96365],-2.721,-2.721,,3.05,,-2.721,104,,,,,,104,57,115.609,90.0391,H2&S1 ave luc 10uM (ATXN2-luc [2]; [12]): 57
CC(C)c1cc(/C=C(\C#N)C(=O)NCCCc2ccccc2)cc(C(C)C)c1O [SU1498],-4.885,-4.885,-4.885,5.48,22,,,,,,,15,22,15,86.0811,61.708,
[H]/N=C(/NCCCCC)N/N=C/c1c[nH]c2ccc(OC)cc12 [TEGASEROD MALEATE],-3.606,-3.606,,4.01,,-3.606,105,,,,,,,,,,activity at 1 µM (ATXN2-luc [3]; [8]): 105%; activity at 10 µM (ATXN2-luc [3]; average of H2 and S1 cells): 8%; viability at 1 µM (H2 and S1 cells; [9]): 106%; viability at 10 µM (H2 and S1 cells; [10]): 14.2%
CCN(CC)CCCCCCCCOC(=O)c1cc(OC)c(OC)c(OC)c1 [TMB-8],-5.740,-5.740,-5.740,6.44,66,,,,,,,53,66,53,73.9218,52.1193,
COc1cccc(C2(O)CCCCC2CN(C)C)c1 (stereo not shown) [Tramadol],-3.415,-3.415,,3.79,,-3.415,107,107,134,128,113,,,,,,H2&S1 ave luc 10uM (ATXN2-luc [2]; [12]): 134
